Reference: patent publication US20020137929A1, “1 - (3-heterocyclylphenyl) isothiourea, -isourea, -guanidine and -amidine herbicidal agents” (Intellectual Property Department, BASF Aktiengesellschaft, priority 1998, published 2002)

Tests used:
[1] = test system: AMBEL (Ragweed, Common); experiment: Preemergence herbicidal evaluation; format: in vivo, Ambrosia artemisifolia; conditions: rated 4-5 weeks after treatment
Procedure, shortened: (§1)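 Preemergence soil application of compound, sprayed in aqueous acetone at rates equivalent to about 0.0156 to 0.500 kg per hectare onto freshly sown cups. Plant response was judged by eye on a 0-9 scale four to five weeks later.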

[2] = test system: ORYSAT (Rice, Tebonnet); experiment: Preemergence herbicidal evaluation; format: in vivo, Oryza sativa, (L.) Tebonnet; conditions: rated 4-5 weeks after treatment
Procedure, shortened: as §1

[3] = test system: CHEAL (Lambsquarters, Common); experiment: Postemergence herbicidal evaluation; format: in vivo, Chenopodium album
Procedure, shortened: (§2)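 Compound is applied as a foliar spray to seedlings about two weeks old, formulated in equal parts acetone and water with 0.5% TWEEN 20 and delivered at 40 psi to give about 0.0156–0.500 kg per hectare. Injury is rated visually 0–9 after four to five weeks.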

[4] = test system: GLXMAW (Soybean, Williams); experiment: Preemergence herbicidal evaluation; format: in vivo, Glycine max, (L.) Merr. cv Williams; conditions: rated 4-5 weeks after treatment
Procedure, shortened: as §1

[5] = test system: SAGPY (Arrowhead (Pygmaea)); experiment: Postemergence weed control under flooded paddy conditions; format: in vivo, Sagittaria pygmaea; conditions: postemergence weeds, 3-4 weeks after treatment
Procedure, shortened: (§3)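 Containers holding 3–5 cm weeds and rice at 1.5–2.5 leaves are flooded to 1.5–3 cm above soil. Compound in 50/50 v/v aqueous/acetone is then added directly to the water, about 0.0313–0.500 kg/ha. Plants are kept in the greenhouse and rated 0–9 visually at 3–4 weeks.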

[6] = test system: CYPSE (Flatsedge); experiment: as above; format: in vivo, Cyperus serotinus; conditions: postemergence weeds, 3-4 weeks after treatment
Procedure, shortened: as §3

[7] = test system: CYPSE (Flatsedge); experiment: Preemergence weed control under flooded paddy conditions; format: in vivo, Cyperus serotinus; conditions: rated 3-4 weeks after treatment
Procedure, shortened: (§4)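 Seeds or propagules sown in silt loam kept flooded 1.5-3 cm; compounds in 50/50 acetone/water pipetted into flood water at about 0.0313 to 0.500 kg/ha. Greenhouse; visual 0-9 rating versus untreated control 3-4 weeks after treatment.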

[8] = test system: CYPIR (Rice Flatsedge); experiment: Postemergence weed control under flooded paddy conditions; format: in vivo, Cyperus iria; conditions: postemergence weeds, 3-4 weeks after treatment
Procedure, shortened: as §3

[9] = test system: ORYSAT (Rice, Tebonnet); experiment: Postemergence herbicidal evaluation; format: in vivo, Oryza sativa, (L.) Tebonnet
Procedure, shortened: as §2

[10] = test system: CASOB (Sicklepod); experiment: Postemergence herbicidal evaluation; format: in vivo, Cassia obtusifolia
Procedure, shortened: as §2

[11] = test system: SETVI (Foxtail, Green); experiment: Preemergence herbicidal evaluation; format: in vivo, Setaria viridis; conditions: rated 4-5 weeks after treatment
Procedure, shortened: as §1

[12] = test system: GALAP (Galium); experiment: Postemergence herbicidal evaluation; format: in vivo, Galium aparine
Procedure, shortened: as §2

[13] = test system: ZEAMX (Corn, Field); experiment: Postemergence herbicidal evaluation; format: in vivo, Zea mays
Procedure, shortened: as §2

[14] = test system: MOOVA (Monochoria); experiment: Preemergence weed control under flooded paddy conditions; format: in vivo, Monochoria vaginalis; conditions: rated 3-4 weeks after treatment
Procedure, shortened: as §4

Cn1c(C(F)(F)F)cc(=O)n(-c2cc(N=C3SCC(=O)N3CCC(=O)O)c(Cl)cc2F)c1=O [Compound 30, 2-{{2-Chloro-5-[3,6-dihydro-3-methyl-2,6-dioxo-4-(trifluoromethyl)-1(2H)-pyrimidinyl]-4-fluorophenyl}imino}-4-oxo-3-thiazolidinepropionic acid]
0.0: Preemergence herbicidal rating AMBEL ([1]; rate 0.0313 kg/ha) | Postemergence herbicidal rating CHEAL ([3]; Rate 0.0158 kg/ha) | Postemergence herbicidal rating CHEAL ([3]; Rate 0.0315 kg/ha) | Herbicidal rating SAGPY ([5]; rate 0.1250 kg/ha) | Herbicidal rating CYPSE ([6]; rate 0.1250 kg/ha) | Herbicidal rating CYPSE ([6]; rate 0.2500 kg/ha) | Herbicidal rating CYPSE ([7]; 0.1250 kg/ha) | Herbicidal rating CYPSE ([7]; 0.2500 kg/ha) | Postemergence herbicidal rating CASOB ([10]; Rate 0.0158 kg/ha) | Postemergence herbicidal rating CASOB ([10]; Rate 0.0315 kg/ha) | Postemergence herbicidal rating CASOB ([10]; Rate 0.0630 kg/ha) | Preemergence herbicidal rating SETVI ([11]; rate 0.0313 kg/ha) | Preemergence herbicidal rating SETVI ([11]; rate 0.0625 kg/ha) | Postemergence herbicidal rating GALAP ([12]; Rate 0.0158 kg/ha) | Postemergence herbicidal rating GALAP ([12]; Rate 0.0315 kg/ha) | Postemergence herbicidal rating GALAP ([12]; Rate 0.0630 kg/ha)
3.5: Postemergence herbicidal rating ORYSAT ([9]; Rate 0.0630 kg/ha)
4.5: Herbicidal rating CYPIR ([8]; rate 0.2500 kg/ha) | Postemergence herbicidal rating ZEAMX ([13]; Rate 0.0315 kg/ha) | Herbicidal rating MOOVA ([14]; 0.2500 kg/ha)
4.0: Preemergence herbicidal rating ORYSAT ([2]; rate 0.2500 kg/ha) | Preemergence herbicidal rating GLXMAW ([4]; rate 0.2500 kg/ha)
2.5: Postemergence herbicidal rating ORYSAT ([9]; Rate 0.0315 kg/ha)
7.0: Preemergence herbicidal rating SETVI ([11]; rate 0.1250 kg/ha)
2.0: Preemergence herbicidal rating GLXMAW ([4]; rate 0.0313 kg/ha) | Herbicidal rating SAGPY ([5]; rate 0.2500 kg/ha) | Herbicidal rating CYPIR ([8]; rate 0.1250 kg/ha) | Postemergence herbicidal rating ORYSAT ([9]; Rate 0.0158 kg/ha)
1.0: Preemergence herbicidal rating AMBEL ([1]; rate 0.0625 kg/ha) | Preemergence herbicidal rating ORYSAT ([2]; rate 0.0313 kg/ha) | Preemergence herbicidal rating ORYSAT ([2]; rate 0.0625 kg/ha) | Preemergence herbicidal rating ORYSAT ([2]; rate 0.1250 kg/ha) | Preemergence herbicidal rating GLXMAW ([4]; rate 0.1250 kg/ha)
6.0: Preemergence herbicidal rating AMBEL ([1]; rate 0.2500 kg/ha) | Postemergence herbicidal rating ZEAMX ([13]; Rate 0.0630 kg/ha)
3.0: Postemergence herbicidal rating CHEAL ([3]; Rate 0.0630 kg/ha) | Preemergence herbicidal rating GLXMAW ([4]; rate 0.0625 kg/ha) | Postemergence herbicidal rating ZEAMX ([13]; Rate 0.0158 kg/ha)
9.0: Preemergence herbicidal rating SETVI ([11]; rate 0.2500 kg/ha)
1.5: Herbicidal rating MOOVA ([14]; 0.1250 kg/ha)
5.0: Preemergence herbicidal rating AMBEL ([1]; rate 0.1250 kg/ha)
